Measurements taken from PubChem BioAssay (NCI).
“And” between values parts separate entries of the source, which are not always exact repeats. Equal entries are not always repeated.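 Cells were grown in 96-well plates and exposed to each compound for 48 hours at five concentrations; endpoints were interpolated linearly between bracketing concentrations, or set to the highest concentration if not reached. GI50 = concentration required for 50% inhibition of growth. TGI marks complete inhibition of growth.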

Key:
Test in all cases: NCI tumour cell line growth inhibition, 48 h
HS 578T breast = system: HS 578T breast
HT29 colon = system: HT29 colon
MDA-MB-435 = system: MDA-MB-435
NCI-H226 lung = system: NCI-H226 lung
NCI-H460 lung = system: NCI-H460 lung
OVCAR-8 ovarian = system: OVCAR-8 ovarian
SF-539 CNS = system: SF-539 CNS
SK-OV-3 ovarian = system: SK-OV-3 ovarian
LXFL 529 NSCLC = system: LXFL 529 NSCLC

| Compound | GI50 (HS 578T breast) [µM] | TGI (HS 578T breast) [µM] | GI50 (HT29 colon) [µM] | TGI (HT29 colon) [µM] | GI50 (MDA-MB-435) [µM] | TGI (MDA-MB-435) [µM] | GI50 (NCI-H226 lung) [µM] | TGI (NCI-H226 lung) | GI50 (NCI-H460 lung) [µM] | TGI (NCI-H460 lung) [µM] | GI50 (OVCAR-8 ovarian) [µM] | TGI (OVCAR-8 ovarian) [µM] | GI50 (SF-539 CNS) [µM] | TGI (SF-539 CNS) [µM] | GI50 (SK-OV-3 ovarian) [µM] | TGI (SK-OV-3 ovarian) [µM] | TGI (LXFL 529 NSCLC) [µM] |
| --- | --- | --- | --- | --- | --- | --- | --- | --- | --- | --- | --- | --- | --- | --- | --- | --- | --- |
| COc1ccc2c(CN3CCCC[C@H]3C(=O)O)cc3cc4c(cc3c2c1)OCO4 | 1.53 | 4.4 | 0.374 | 1.85 | 1.05 | 4.09 | 1.42 | 3.13 µM | 0.359 | 2.23 | 0.457 | 11.7 | 4.54 | 16.2 | 3.25 | 23.1 | – |
| Nc1ncnc2c1N=C(c1ccc3c(c1)OCO3)CC(c1ccc([N+](=O)[O-])cc1)N2 (configuration not stated) | 9.18 | > 100 | 63 | > 100 | 62 | > 100 | > 100 | > 100 µM | 76.3 | > 100 | 55.9 | > 100 | > 100 | > 100 | > 100 | > 100 | – |
| Cc1cc2c(C(C)C)c(O)c(O)cc2c(O)c1-c1c(C)cc2c(C(C)C)c(O)c(O)cc2c1O | 19.3 | 47.6 | 20.1 | 39.6 | 14.5 | 31.3 | 16.5 | 34.9 µM | 11.8 | 40 | 15.2 | 41.1 | 19.9 | 43.5 | 23.9 | 73.5 | – |
| O=C1NC(Nc2ccccc2)=NC(C(F)(F)F)(C(F)(F)F)N1 | – | > 100 | – | > 100 | – | > 100 | – | > 100 µM | – | > 100 | – | > 100 | – | > 100 | – | > 100 | – |
| Cc1cccc(/C=N/NC(=S)N2CCCC2)n1 | – | > 100 | 4.49 | > 100 | 1.11 | > 100 | 0.266 | 7.73 µM and 0.83 µM | – | > 42 | 0.624 | > 100 | 0.753 | – | – | > 100 | – |
| COc1cc2nc(N3CCCC3)nc(NCc3ccccc3)c2cc1OC | 1.99 | 4.5 | 2.29 | 7.29 | 1.69 | 3.16 | 17.3 | 40.4 µM | 2.95 | 8.73 | 3.2 | 13.7 | 1.71 | 3.12 | 14 | 27.4 | – |
| O=C(C/C(=N/O)C(=O)NC1=C(Cl)C(=O)c2ccccc2C1=O)CC(c1ccccc1)c1c(O)c2ccccc2oc1=O (configuration not stated) | – | 50.6 | – | 44.3 | – | 4.72 | – | 20.3 µM | – | 16 | – | > 100 | – | 31.7 | – | > 100 | – |
| Cc1cn(C2CC3C(COCN3O)O2)c(=O)[nH]c1=O (configuration not stated) | – | – | – | > 100 | – | – | – | > 100 µM | – | > 100 | – | > 100 | – | > 100 | – | > 100 | > 100 |
| C#CC#CC#CC#CC#CC#CC#CC#CCC1OCC(COC(=O)O[C@@H](C(=O)O[C@H]2C[C@@]3(O)[C@@H](OC(=O)c4ccccc4)[C@@H]4[C@]5(OC(C)=O)CO[C@@H]5C[C@H](O)[C@@]4(C)C(=O)[C@H](OC(C)=O)C(=C2C)C3(C)C)[C@@H](NC(=O)c2ccccc2)c2ccccc2)O1 (some centres not stated) | 0.108 | – | 0.0387 | > 33.3 | 0.0167 | 0.0434 | 2.22 | > 33.3 µM | 0.0426 | > 33.3 | 0.187 | > 33.3 | 0.156 | 1.97 | 0.51 | > 33.3 | – |
| NC(=O)N/N=C1/CCC(O)CC1CC(=O)O (configuration not stated) | – | > 100 | – | > 100 | – | > 100 | – | > 100 µM | – | > 100 | – | > 100 | – | > 100 | – | > 100 | – |
| C=CCN=C(N/N=C/c1ccc([N+](=O)[O-])o1)NS(=O)(=O)c1cc(C(=O)Nc2ccc(Cl)cc2)c(Cl)cc1SC | > 41.9 | > 100 | 5.81 | > 100 | 2.88 | 7.05 | 13.5 | > 100 µM | 2.22 | > 35.2 | – | > 20.7 | 5.92 | > 100 | > 100 | > 100 | – |
| CC(=O)N1CC(C)(C)c2c(C)c(O)c(C)c(C)c21 | – | > 100 | – | > 100 | – | > 100 | – | > 100 µM | – | > 100 | – | > 100 | – | > 100 | – | > 100 | – |
| O=C1Nc2ccc(Br)cc2C1=Nc1cccnc1 | – | 60.5 | – | 51.3 | – | 28.9 | – | > 100 µM | – | > 100 | – | 51.7 | – | 30 | – | > 100 | – |
| N#C/C(=C\c1ccsc1)c1nc2ccccc2o1 | 26 | 92.9 | > 100 | > 100 | > 100 | > 100 | > 100 | > 100 µM | > 100 | > 100 | > 100 | > 100 | 38.7 | > 100 | 40.7 | > 100 | – |
| O=C1OCC2=C1C(c1cccc(Cl)c1)c1cc3c(cc1N2CCO)OCCO3 (configuration not stated) | 0.0747 | > 78.2 | 0.0402 | 0.282 | 0.0236 | 0.0626 | 0.0845 | 1.85 µM | 0.0494 | 4.59 | 0.176 | 4.33 | 0.0467 | 0.975 | 0.0548 | 1.96 | – |
| NCCCC[C@@H]1NC(=O)[C@H]2CCCN2C(=O)[C@H](Cc2ccccc2)CNC(=O)[C@H](Cc2ccccc2)NC1=O | > 37.5 | > 37.5 | > 37.5 | > 37.5 | > 37.5 | > 37.5 | > 37.5 | > 37.5 µM | > 37.5 | > 37.5 | > 37.5 | > 37.5 | > 37.5 | > 37.5 | > 37.5 | > 37.5 | – |
| O=C(Nc1ccc(Br)cc1F)c1cc(I)ccc1O | 2.43 | 9.1 | 16.9 | 78.3 | 3.04 | 10.1 | 1.9 | 5.48 µM | 3.15 | > 100 | 3.01 | 15.9 | 2.8 | 12.1 | 2.13 | 7.95 | – |
